Assay results from patent US20260042731A1, “(2,4-DICHLOROPHENOXY)ACETIC ACID ANALOGS” (CORTEVA AGRISCIENCE LLC, priority 2022, published 2026).
Where two headings read alike, the source gives them in different places.

What was measured:
[1] = tested on: ABUTH, AMATA, AMBEL, CHEAL, ERICA weeds; assay: Postemergence herbicide evaluation, overall average % weed control across ABUTH, AMATA, AMBEL, CHEAL, ERICA; type: in vivo
Excerpt: For example, the pesticidal activity may include herbicidal activity.

[2] = Volatility of compounds measured by thermogravimetric analysis (TGA); type: physicochemical
[3] = tested on: Abutilon theophrasti (ABUTH), velvetleaf; assay: Postemergence herbicide evaluation, growth of Abutilon theophrasti (ABUTH); type: in vivo; conditions: Abutilon theophrasti, post-emergence, read-out: AVE. ABUTH, percent reduction in plant size relative to the untreated control; for pest or weed control at 280 g/ha: 280 g ae/ha; for pest or weed control at 560 g/ha: 560 g ae/ha
[4] = tested on: Ambrosia artemisiifolia (AMBEL), common ragweed; assay: Postemergence herbicide evaluation, growth of Ambrosia artemisiifolia (AMBEL); type: in vivo; conditions: Ambrosia artemisiifolia, post-emergence, read-out: AVE. AMBEL, percent reduction in plant size relative to the untreated control; for pest or weed control at 280 g/ha: 280 g ae/ha; for pest or weed control at 560 g/ha: 560 g ae/ha
[5] = tested on: glyphosate resistant Conyza canadensis (L.) (ERICA), horseweed; assay: Postemergence herbicide evaluation, growth of Conyza canadensis (ERICA); type: in vivo; conditions: Erigeron canadensis, post-emergence, read-out: Ave. ERICA, percent reduction in plant size relative to the untreated control; for pest or weed control at 280 g/ha: 280 g ae/ha; for pest or weed control at 560 g/ha: 560 g ae/ha
[6] = tested on: weeds ABUTH, AMATA, AMBEL, CHEAL, ERICA; assay: Postemergence herbicide evaluation, overall average % weed control (ABUTH, AMATA, AMBEL, CHEAL, ERICA); type: in vivo; conditions: post-emergence, read-out: Overall Ave % Weed Control; for pest or weed control at 280 g/ha: 280 g ae/ha; for pest or weed control at 560 g/ha: 560 g ae/ha
[7] = tested on: Glycine max (Enlist E3 traited soybeans, GLXMA); conditions: Enlist E3 soybeans
[8] = tested on: Amaranthus rudis (AMATA), tall water hemp; assay: Postemergence herbicide evaluation, growth of Amaranthus rudis (AMATA); type: in vivo; conditions: Amaranthus tuberculatus, post-emergence, read-out: Ave. AMATA, percent reduction in plant size relative to the untreated control; for pest or weed control at 280 g/ha: 280 g ae/ha; for pest or weed control at 560 g/ha: 560 g ae/ha
[9] = tested on: Chenopodium album (CHEAL), common lambsquarters; assay: Postemergence herbicide evaluation, growth of Chenopodium album (CHEAL); type: in vivo; conditions: Chenopodium album, post-emergence, read-out: Ave. CHEAL, percent reduction in plant size relative to the untreated control; for pest or weed control at 280 g/ha: 280 g ae/ha; for pest or weed control at 560 g/ha: 560 g ae/ha

In the case of CN(NC(=O)COc1ccc(Cl)cc1Cl)c1ccccc1 [Compound D11, 2-(2,4-Dichlorophenoxy)-N′-methyl-N′-phenylacetohydrazide], the “Overall Ave % Weed Control” value ([1]; 280 g ae/ha, 7 DAA) is reported as 63%, the “Overall Ave % Weed Control” value ([1]; 280 g ae/ha, 14 DAA) is reported as 76% and the “Overall Ave % Weed Control” value ([1]; 280 g ae/ha, 21 DAA) is reported as 80%. The “Overall Ave % Weed Control” value ([1]; 560 g ae/ha, 7 DAA) was 69%, the “Overall Ave % Weed Control” value ([1]; 560 g ae/ha, 14 DAA) was 82% and the “Overall Ave % Weed Control” value ([1]; 560 g ae/ha, 21 DAA) was 89%. The “TGA Data (rate of weight loss, volatility)” value [2] was 0.06 µg/min.

Work on C[N+](C)(C)CCOC(=O)COc1ccc(Cl)cc1Cl.[Cl-] [Compound E3, 2-(2-(2,4-Dichlorophenoxy)acetoxy)-N, N, N-trimethylethanaminium chloride] yielded a pest or weed control at 280 g/ha ([3]; 168 h, 7 DAA) of 75%, a pest or weed control at 560 g/ha ([3]; 168 h, 7 DAA) of 83% and a pest or weed control at 280 g/ha ([3]; 336 h, 14 DAA) of 78%. The pest or weed control at 560 g/ha ([3]; 336 h, 14 DAA) was 93%, the pest or weed control at 280 g/ha ([3]; 504 h, 21 DAA) was 86% and the pest or weed control at 560 g/ha ([3]; 504 h, 21 DAA) was 97%. The pest or weed control at 280 g/ha ([4]; 168 h, 7 DAA) was 63%, the pest or weed control at 560 g/ha ([4]; 168 h, 7 DAA) was 75% and the pest or weed control at 280 g/ha ([4]; 336 h, 14 DAA) was 89%. The pest or weed control at 560 g/ha ([4]; 336 h, 14 DAA) was 93%, the pest or weed control at 280 g/ha ([4]; 504 h, 21 DAA) was 95% and the pest or weed control at 560 g/ha ([4]; 504 h, 21 DAA) was 98%. The “TGA Data (rate of weight loss, volatility)” value [2] was 2.4 µg/min, the pest or weed control at 280 g/ha ([5]; 168 h, 7 DAA) was 73% and the pest or weed control at 560 g/ha ([5]; 168 h, 7 DAA) was 78%. For the same compound, the pest or weed control at 280 g/ha ([5]; 336 h, 14 DAA) was 83%, the pest or weed control at 560 g/ha ([5]; 336 h, 14 DAA) was 88% and the pest or weed control at 280 g/ha ([5]; 504 h, 21 DAA) was 95%. It also gave a pest or weed control at 560 g/ha ([5]; 504 h, 21 DAA) of 93%, a pest or weed control at 280 g/ha ([6]; 168 h, 7 DAA) of 71% and a pest or weed control at 560 g/ha ([6]; 168 h, 7 DAA) of 77%. The pest or weed control at 280 g/ha ([6]; 336 h, 14 DAA) was 81%, the pest or weed control at 560 g/ha ([6]; 336 h, 14 DAA) was 86% and the pest or weed control at 280 g/ha ([6]; 504 h, 21 DAA) was 86%. For the same compound, the pest or weed control at 560 g/ha ([6]; 504 h, 21 DAA) was 89%, the “AVE. GLXMA, percent reduction in plant size relative to the untreated control” value ([7]; 280 g ae/ha, 7 DAA) was 0% and the “AVE. GLXMA, percent reduction in plant size relative to the untreated control” value ([7]; 280 g ae/ha, 14 DAA) was 0%. For the same compound, the “AVE. GLXMA, percent reduction in plant size relative to the untreated control” value ([7]; 280 g ae/ha, 21 DAA) was 3%, the “AVE. GLXMA, percent reduction in plant size relative to the untreated control” value ([7]; 560 g ae/ha, 7 DAA) was 0% and the “AVE. GLXMA, percent reduction in plant size relative to the untreated control” value ([7]; 560 g ae/ha, 14 DAA) was 0%. For the same compound, the “AVE. GLXMA, percent reduction in plant size relative to the untreated control” value ([7]; 560 g ae/ha, 21 DAA) was 0%, the pest or weed control at 280 g/ha ([8]; 168 h, 7 DAA) was 78% and the pest or weed control at 560 g/ha ([8]; 168 h, 7 DAA) was 78%. For the same compound, the pest or weed control at 280 g/ha ([8]; 336 h, 14 DAA) was 78%, the pest or weed control at 560 g/ha ([8]; 336 h, 14 DAA) was 85% and the pest or weed control at 280 g/ha ([8]; 504 h, 21 DAA) was 75%. The pest or weed control at 560 g/ha ([8]; 504 h, 21 DAA) was 83%, the pest or weed control at 280 g/ha ([9]; 168 h, 7 DAA) was 68% and the pest or weed control at 560 g/ha ([9]; 168 h, 7 DAA) was 70%. It also gave a pest or weed control at 280 g/ha ([9]; 336 h, 14 DAA) of 78%, a pest or weed control at 560 g/ha ([9]; 336 h, 14 DAA) of 73% and a pest or weed control at 280 g/ha ([9]; 504 h, 21 DAA) of 80%. The pest or weed control at 560 g/ha ([9]; 504 h, 21 DAA) was 77%.
